Test results as given in PubChem BioAssay (NCI).
Several values for one entry are separate records, joined by “and”; a condition that tells them apart may be missing. Identical values can stand only once.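 Step 1: Grow cells in 96-well plates. Step 2: Expose to compound for 48 hours at 5 concentrations. Step 3: Interpolate endpoints linearly; if unreached, use highest concentration. GI50 = concentration required for 50% inhibition of growth. At the TGI there is no net growth.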

Key:
Experiment in all cases: NCI tumour cell line growth inhibition, 48 h
HOP-18 NSCLC = test system: HOP-18 NSCLC
SNB-19 CNS = test system: SNB-19 CNS
NCI-H226 lung = test system: NCI-H226 lung
SNB-78 CNS = test system: SNB-78 CNS
HCT-15 colon = test system: HCT-15 colon
NCI-H460 lung = test system: NCI-H460 lung
OVCAR-3 ovarian = test system: OVCAR-3 ovarian
DMS 273 small cell lung = test system: DMS 273 small cell lung
DMS 114 small cell lung = test system: DMS 114 small cell lung
P388/ADR leukemia = test system: P388/ADR leukemia
HOP-62 NSCLC = test system: HOP-62 NSCLC
SW-620 colon = test system: SW-620 colon
U251 CNS = test system: U251 CNS
A549 NSCLC = test system: A549 NSCLC
HT29 colon = test system: HT29 colon
M19-MEL melanoma = test system: M19-MEL melanoma
UACC-257 melanoma = test system: UACC-257 melanoma
SN12C renal = test system: SN12C renal
COLO 205 colon = test system: COLO 205 colon
OVCAR-5 ovarian = test system: OVCAR-5 ovarian
K-562 leukemia = test system: K-562 leukemia
UO-31 renal = test system: UO-31 renal
OVCAR-8 ovarian = test system: OVCAR-8 ovarian
HCT-116 colon = test system: HCT-116 colon
RXF 393 renal = test system: RXF 393 renal
SNB-75 CNS = test system: SNB-75 CNS
CAKI-1 renal = test system: CAKI-1 renal
CCRF-CEM leukemia = test system: CCRF-CEM leukemia
DLD-1 colon = test system: DLD-1 colon
NCI-H23 lung = test system: NCI-H23 lung
NCI/ADR-RES ovarian = test system: NCI/ADR-RES ovarian
HOP-92 NSCLC = test system: HOP-92 NSCLC
KM20L2 colon = test system: KM20L2 colon
MCF7 breast = test system: MCF7 breast
KM12 colon = test system: KM12 colon
M14 melanoma = test system: M14 melanoma
HCC-2998 colon = test system: HCC-2998 colon
EKVX NSCLC = test system: EKVX NSCLC
UACC-62 melanoma = test system: UACC-62 melanoma
HL-60(TB) leukemia = test system: HL-60(TB) leukemia
IGROV1 ovarian = test system: IGROV1 ovarian
SK-OV-3 ovarian = test system: SK-OV-3 ovarian
SF-539 CNS = test system: SF-539 CNS
SN12K1 renal = test system: SN12K1 renal
SF-295 CNS = test system: SF-295 CNS
XF 498 CNS = test system: XF 498 CNS
P388 leukemia = test system: P388 leukemia
NCI-H522 lung = test system: NCI-H522 lung
SK-MEL-2 melanoma = test system: SK-MEL-2 melanoma
RPMI-8226 leukemia = test system: RPMI-8226 leukemia
HS 578T breast = test system: HS 578T breast
SF-268 CNS = test system: SF-268 CNS
A498 renal = test system: A498 renal
LOX IMVI melanoma = test system: LOX IMVI melanoma
MALME-3M melanoma = test system: MALME-3M melanoma
OVCAR-4 ovarian = test system: OVCAR-4 ovarian
MOLT-4 leukemia = test system: MOLT-4 leukemia
SK-MEL-5 melanoma = test system: SK-MEL-5 melanoma
SK-MEL-28 melanoma = test system: SK-MEL-28 melanoma

`N[C@H](C(=O)O)[C@H]1ON=C(Cl)[C@@H]1O` was tested, and the TGI (HOP-18 NSCLC) was > 550 µM, the GI50 (SNB-19 CNS) was 40.7 µM and the TGI (SNB-19 CNS) was > 550 µM. The GI50 (NCI-H226 lung) was 61.8 µM, the TGI (NCI-H226 lung) was > 550 µM and the TGI (SNB-78 CNS) was > 550 µM. For the same compound, the GI50 (HCT-15 colon) was 3.95 µM, the TGI (HCT-15 colon) was > 550 µM and the GI50 (NCI-H460 lung) was 3.92 µM. The TGI (NCI-H460 lung) was > 52.9 µM and 174 µM, the GI50 (OVCAR-3 ovarian) was 0.449 µM and the TGI (OVCAR-3 ovarian) was > 550 µM. The TGI (DMS 273 small cell lung) was > 550 µM, the TGI (DMS 114 small cell lung) was > 422 µM and the TGI (P388/ADR leukemia) was 46.4 µM. The GI50 (HOP-62 NSCLC) was 16 µM, the TGI (HOP-62 NSCLC) was 78.2 µM and the GI50 (SW-620 colon) was 8.09 µM. For the same compound, the TGI (SW-620 colon) was > 550 µM, the GI50 (U251 CNS) was 11.4 µM and the TGI (U251 CNS) was > 550 µM. For the same compound, the GI50 (A549 NSCLC) was 3.79 µM, the TGI (A549 NSCLC) was > 550 µM and the GI50 (HT29 colon) was 1.24 µM. The TGI (HT29 colon) was > 296 µM, the TGI (M19-MEL melanoma) was > 550 µM and the GI50 (UACC-257 melanoma) was > 51.1 µM. For the same compound, the TGI (UACC-257 melanoma) was > 550 µM, the GI50 (SN12C renal) was 13.6 µM and the TGI (SN12C renal) was > 550 µM. The GI50 (COLO 205 colon) was 3.27 µM, the TGI (COLO 205 colon) was > 550 µM and the GI50 (OVCAR-5 ovarian) was 13.8 µM. For the same compound, the TGI (OVCAR-5 ovarian) was > 166 µM, the GI50 (K-562 leukemia) was 4.15 µM and the TGI (K-562 leukemia) was > 550 µM. The TGI (UO-31 renal) was 441 µM, the GI50 (OVCAR-8 ovarian) was 12.2 µM and the TGI (OVCAR-8 ovarian) was > 550 µM. The GI50 (HCT-116 colon) was 4.4 µM, the TGI (HCT-116 colon) was > 550 µM and the GI50 (RXF 393 renal) was 7.92 µM. For the same compound, the TGI (RXF 393 renal) was > 93.8 µM and 232 µM, the TGI (SNB-75 CNS) was > 364 µM and the GI50 (CAKI-1 renal) was 4.06 µM. For the same compound, the TGI (CAKI-1 renal) was 205 µM, the GI50 (CCRF-CEM leukemia) was 5.15 µM and the TGI (CCRF-CEM leukemia) was > 246 µM. For the same compound, the TGI (DLD-1 colon) was > 550 µM, the GI50 (NCI-H23 lung) was 5.09 µM and the TGI (NCI-H23 lung) was > 550 µM. The GI50 (NCI/ADR-RES ovarian) was 15.3 µM, the TGI (NCI/ADR-RES ovarian) was > 469 µM and the GI50 (HOP-92 NSCLC) was 52.2 µM. The TGI (HOP-92 NSCLC) was 269 µM, the TGI (KM20L2 colon) was > 394 µM and the GI50 (MCF7 breast) was 0.374 µM. The TGI (MCF7 breast) was > 550 µM, the GI50 (KM12 colon) was 2.23 µM and the TGI (KM12 colon) was > 550 µM. The TGI (M14 melanoma) was > 66.9 µM, the GI50 (HCC-2998 colon) was 5.62 µM and the TGI (HCC-2998 colon) was > 173 µM. The GI50 (EKVX NSCLC) was 11.2 µM, the TGI (EKVX NSCLC) was > 550 µM and the GI50 (UACC-62 melanoma) was 17.5 µM. For the same compound, the TGI (UACC-62 melanoma) was > 550 µM, the GI50 (HL-60(TB) leukemia) was 13.1 µM and the TGI (HL-60(TB) leukemia) was 222 µM. For the same compound, the GI50 (IGROV1 ovarian) was 7.86 µM, the TGI (IGROV1 ovarian) was > 309 µM and the GI50 (SK-OV-3 ovarian) was 4.86 µM. The TGI (SK-OV-3 ovarian) was > 231 µM, the GI50 (SF-539 CNS) was 8.83 µM and the TGI (SF-539 CNS) was > 362 µM. The TGI (SN12K1 renal) was > 324 µM, the GI50 (SF-295 CNS) was 2.83 µM and the TGI (SF-295 CNS) was > 550 µM. For the same compound, the TGI (XF 498 CNS) was > 301 µM, the TGI (P388 leukemia) was 17.5 µM and the GI50 (NCI-H522 lung) was > 25.8 µM. The TGI (NCI-H522 lung) was 62.6 µM, the GI50 (SK-MEL-2 melanoma) was 9.75 µM and the TGI (SK-MEL-2 melanoma) was > 550 µM. The GI50 (RPMI-8226 leukemia) was 10.9 µM, the TGI (RPMI-8226 leukemia) was > 97.1 µM and 233 µM and the TGI (HS 578T breast) was 97.5 µM. For the same compound, the GI50 (SF-268 CNS) was 5.1 µM, the TGI (SF-268 CNS) was > 550 µM and the TGI (A498 renal) was 137 µM. The GI50 (LOX IMVI melanoma) was 1.54 µM, the TGI (LOX IMVI melanoma) was > 550 µM and the GI50 (MALME-3M melanoma) was 40.2 µM. The TGI (MALME-3M melanoma) was > 255 µM, the GI50 (OVCAR-4 ovarian) was 5.32 µM and the TGI (OVCAR-4 ovarian) was 42.2 µM. The GI50 (MOLT-4 leukemia) was 2.48 µM, the TGI (MOLT-4 leukemia) was 68 µM and the GI50 (SK-MEL-5 melanoma) was 4.39 µM. The TGI (SK-MEL-5 melanoma) was > 96.2 µM and 246 µM, the GI50 (SK-MEL-28 melanoma) was 28.4 µM and the TGI (SK-MEL-28 melanoma) was > 550 µM.
